# In patent publication US20260083126A1, “ANTIMICROBIAL COMPOSITIONS” (AHV International B.V., priority 2022, published 2026):
# “Also recorded” adds a separate entry of the source.
# Assays:
# [1] = solubility observed when preparing stock solutions; assay type: physicochemical; settings: in water / medium; stock of 2 mM feasible with Tween80 and DMSO
# Protocol: (§1) Hereafter, the stock solutions of the compounds were used in three repetitions in a minimal inhibitory concentration (MIC) assay at a 2-fold dilution range with various bacteria from the gram-positive and gram-negative group and a yeast, Candida albicans. The concentrations that show only less than 10% growth after 24 h were considered the MIC90-values, whereas the concentrations that show 50% growth after 24 h when compared to the bacterial growth control were considered the MIC50-values. Escherichia coli and Staphylococcus aureus were used as representatives for a gram-negative bacteria and gram-positive bacteria, respectively. Furthermore, the yeast C. albicans was also tested.
# Conclusion and discussion. […] With the addition of solvents like Tween80 and DMSO a stock solution in medium of 2 mM was feasible. This allowed a maximum of testing concentration of 1 mM. […] Therefore, with the application of solvents a maximum testing concentration of 0.575 mM was possible. If the real growth-inhibiting concentration (MIC90) lies above these maximum assay concentrations, then it would not be detected in this assay.
# [2] = tested on: Staphylococcus aureus LUH14616; test: Resistance development on repeated exposure (19 passages); assay type: cell-based
# Protocol: Experimental design. Potential resistance to AM-8 was assessed as described by Habets and Brockhurst (2012) (Therapeutic antimicrobial peptides may compromise natural immunity. Biol Lett 8:416-418). Briefly, log phase bacteria (S. aureus LUH 14616) were diluted in RPMI-mod to a concentration of 2×10^6 CFU/ml. Next, 50 μl of this bacterial suspension were mixed with 50 μl of a range of dilutions of AM-8 or—as comparator-rifampicin in v-bottom 96-wells plates. Thereafter, the plates were covered with a plastic seal and incubated for 24 hrs at 37° C. in a shaking incubator (200 rpm). The plates were then centrifuged for 5 min at 2,000 rpm and the growth inhibition was determined. To start the resistance development testing, 100 μl of a mid-log bacterial suspension containing 2×10^6 CFU/ml were mixed with 150 μl of RPMI-mod and 5 μl of this diluted bacterial suspension were applied to v-bottom wells containing a dilution range of AM-8 or antibiotics (various concentrations below and above MIC) in RPMI-mod (RPMI 1640 modified with 20 mM Hepes and L-glutamine and without sodium bicarbonate (Sigma-Aldrich); further referred to as RPMI-mod). After 24 hrs at 37° C. in a shaking incubator (200 rpm) the growth inhibition was determined. 100 μl of the bacterial suspension from the 0.5×MIC wells were mixed with 150 μl of RPMI-mod and 5 μl of the diluted bacterial suspension were used to inoculate a new 96-wells plate containing a dilution series of AM-8 or rifampicin, and these mixtures were then incubated as described above. If resistance developed, the concentration range of AM-8 and/or antibiotic was adjusted accordingly. This was repeated 19 times. Results are expressed as the fold-increase in MIC compared to the MIC at the start of the experiment.
# [3] = tested on: Staphylococcus aureus LUH14616 mature biofilms; test: Biofilm eradication assay, 7-day mature biofilms; assay type: cell-based; settings: 7-day mature biofilm
# Protocol: Biofilm eradication assay. The assay to reduce bacterial counts in mature biofilms was assessed as described earlier (Scheper H J, Wubbolts J M, Verhagen J A M, de Visser A W, van der Wal R J P, Visser L G, de Boer M J J G, and Nibbering P H. SAAP-148 eradicates MRSA persisters within mature biofilm models simulating prosthetic joint infection. Front. Microbiol. 12:625952. Doi: 10.3389/fmicb.2021.625952. eCollection 2021) with a single modification, i.e., the biofilms were exposed daily to AM-8 for up to 4 consecutive days. Briefly, approximately 1×10^7 CFU logarithmic phase bacteria in BHI were cultured in a 96-well flat-bottom polystyrene microplate sealed with breathable seal for 7 days. Next, mature biofilms were washed twice with PBS, then exposed for 24 hrs to AM-8 or as control the diluent of this compound. Hereafter the biofilms were washed and either re-exposed to AM-8/its diluent for another day or—in case of termination of the daily exposures-sonicated for microbiological quantification of the number of viable bacteria. Results are expressed as the number of surviving bacteria at the various days of exposure. Experiment was performed in triplicate.
# [4] = tested on: Staphylococcus aureus LUH 14616; test: MBC assay (Minimal Bactericide Concentration); assay type: cell-based; settings: for MBC Staphylococcus aureus: LUH 14616, n = 3, no colonies on agar plate after 20 h; for effect at concentrations of growth inhibition (MIC90), S. aureus: higher MBC values compared to MIC90 values
# Protocol: as §1
# (§2) The Minimal Bactericide Concentration (MBC) of two compounds were determined, namely diisopropyl thiosulfonate and di-n-propyl thiosulfonate. […] This assay was performed per strain of E. coli, S. aureus, and C. albicans three independent times. Therefore, the standard deviation could also be calculated (Table 10).
# [5] = tested on: Escherichia coli ATCC 25922; test: MBC assay (Minimal Bactericide Concentration); assay type: cell-based; settings: for MBC Escherichia coli: ATCC 25922, n = 3, no colonies on agar plate after 20 h; for effect at concentrations of growth inhibition (MIC90), E. coli: MBC compared to MIC90
# Protocol: as §1, §2
# Candida albicans Y01-19 = test: MBC assay (Minimal Bactericide Concentration); assay type: cell-based; settings: for effect at concentrations of growth inhibition (MIC90), C. albicans: MBC compared to MIC90; for MBC Candida albicans: Y01-19, n = 3, no colonies on agar plate after 20 h
# Protocol: as §1, §2
# [6] = listed as diisopropyl thiosulfonate Batch A
# [7] = listed as diisopropyl thiosulfonate Batch C
Structure (SMILES),solubility (observed) [1],"resistance development ([2]; 19 passages, listed as AM-8)","fold-increase in MIC compared to the MIC at the start ([2]; within 19 passages, two batches, seen occasionally) [fold]","bacterial counts in mature biofilms, multiple daily exposures ([3]; daily exposure up to 4 days, FIG. 24, listed as AM-8)","biofilm reducing effect of a single dose ([3]; dose range study, results not shown)","MBC Staphylococcus aureus [4, 6] [µM]","MBC Staphylococcus aureus [4, 7] [µM]","effect at concentrations of growth inhibition (MIC90), S. aureus [4]",MBC Escherichia coli [5] [µM],"effect at concentrations of growth inhibition (MIC90), E. coli [5]","effect at concentrations of growth inhibition (MIC90), C. albicans (Candida albicans Y01-19)",MBC Candida albicans (Candida albicans Y01-19; [6]) [µM],MBC Candida albicans (Candida albicans Y01-19; [7]) [µM],MBC Staphylococcus aureus [4] [µM],MBC Candida albicans (Candida albicans Y01-19) [µM]
"Clc1ccc(SSc2ccc(Cl)cc2)cc1 [Bis (4-chlorophenyl) disulfide, Bis(4-chlorophenyl) disulfide]",low solubility,,,,,,,,,,,,,,
CC(C)SS(=O)(=O)C(C)C [Di-isopropyl thiosulfonate],,no resistance development; also recorded: little/no resistance,≤ 2,dose-dependently significantly reduced the bacterial counts in mature biofilms; also recorded: able to eliminate all bacteria within biofilms,increased in time without fully eradicating the bacteria within the biofilm,1500,1833,bacteriostatic effect,219,bactericidal effect,bactericidal effect,75,50,,
"CCCSS(=O)(=O)CCC [Di-n-propyl thiosulfonate, reference compound]",,,,,,,,bacteriostatic effect,208,bactericidal effect,bactericidal effect,,,1083,25
